From patent US10336702B2, “Pharmaceutically active compounds” (BERGENBIO ASA, priority 2015, dated 2019) come the findings set out here.

For one assay, the target named is T1, p-Akt3 in WM115 cells (Homo sapiens, UniProt Q9Y243).
T1 construct: SureFire assays to detect cellular p-Akt1, p-Akt2 and p-Akt3 levels in WM115 cells (Akt2/3) and LNCaP cells (Akt1); endogenous in cells; host or cells: WM115 (ECACC 91061232), insulin-stimulated
Put plainly: Phospho-Akt cellular SureFire assay, p-Akt3 in WM115 cells. Format: cell-based. To be noted: insulin stimulated, read-out: Biological Assay 2 IC50 (nM) Akt3 WM115. Summed up: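 WM115 cells were serum-reduced to 0.1% FBS, stimulated with 100 nM insulin for 10 min, then exposed to compound (0.3% DMSO) for 15 min at 37 °C. Lysates were assayed for Thr308-phosphorylated Akt3 by AlphaScreen SureFire using an isoform-specific total Akt3 capture antibody. IC50 was derived from a 4-parameter fit.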

The next assay deals with T2, p-Akt2 in WM115 cells (Homo sapiens, UniProt P31751).
T2 construct: SureFire assays to detect cellular p-Akt1, p-Akt2 and p-Akt3 levels in WM115 cells (Akt2/3) and LNCaP cells (Akt1); endogenous in cells; host or cells: WM115 (ECACC 91061232), insulin-stimulated
Put plainly: Phospho-Akt cellular SureFire assay, p-Akt2 in WM115 cells. The assay is classed as cell-based. Particulars: insulin stimulated, read-out: Biological Assay 2 IC50 (nM) Akt2 WM115. In a few lines: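 WM115 cells in 0.1% FBS medium stimulated 10 min with 100 nM insulin, then exposed to compound for 15 min at 37° C (0.3% DMSO final). Lysates assayed by AlphaScreen with anti-(pThr308)Akt and isoform-specific total Akt2 antibodies; IC50 from 4-parameter fit.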

Another assay has as its target T3, Akt3 (Homo sapiens, UniProt Q9Y243).
T3 construct: unspecified tag, removed (detagged) (cleaved yes); purchased SignalChem and Proteros (Akt3); Merck Millipore (PDK1) 14-452 (PDK1); none given for Akt3
Description: Akt activation assay (PDK1-mediated activation, LANCE Ultra crosstide TR-FRET), Akt3. Format: biochemical. Particulars: read-out: Biological Assay 1 IC50 (nM) Akt3. In a few lines: (§1)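 Human Akt1, Akt2 or Akt3 (SignalChem: 5, 15, 3 nM; Proteros: 5 nM each) was preincubated with compound, then activated by 5 nM PDK1 on PtdIns(3,4,5)P3/DOPS/DOPC vesicles with 100 µM ATP and 100 nM ULight-crosstide (HEPES pH 7.5, 1% DMSO) for 30 min. Product was detected by Eu-anti-phospho-crosstide TR-FRET (665/615 nm), with IC50 from a 4-parameter fit.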

For the next assay, the target named is T4, p-Akt1 in LNCaP cells (Homo sapiens, UniProt P31749).
T4 construct: SureFire assays to detect cellular p-Akt1, p-Akt2 and p-Akt3 levels in WM115 cells (Akt2/3) and LNCaP cells (Akt1); endogenous in cells; host or cells: LNCaP (ECACC 89110211)
Put plainly: Phospho-Akt cellular SureFire assay, p-Akt1 in LNCaP cells. Format: cell-based. To be noted: read-out: Biological Assay 2 IC50 (nM) Akt1 LNCaP. Summed up:
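LNCaP cells, 5×10^4/well, seeded overnight, switched to 0.1% FBS medium without insulin stimulation, then compound for 15 min at 37 °C (0.3% DMSO). Lysate p-Akt1 (pThr308) by AlphaScreen SureFire, two 2 h incubations at room temperature; IC50 by 4-parameter fit.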

Another assay concerns the target T5, Akt2 (Homo sapiens, UniProt P31751).
T5 construct: unspecified tag, removed (detagged) (cleaved yes); purchased SignalChem and Proteros (Akt2); Merck Millipore (PDK1) 14-452 (PDK1); none given for Akt2
Put plainly: Akt activation assay (PDK1-mediated activation, LANCE Ultra crosstide TR-FRET), Akt2. The assay is classed as biochemical. To be noted: read-out: Biological Assay 1 IC50 (nM) Akt2. Summed up: as §1

In a further assay the target is T6, Akt1 (Homo sapiens, UniProt P31749).
T6 construct: unspecified tag, removed (detagged) (cleaved yes); purchased SignalChem and Proteros (Akt1); Merck Millipore (PDK1) 14-452 (PDK1); none given for Akt1
Description: Akt activation assay (PDK1-mediated activation, LANCE Ultra crosstide TR-FRET), Akt1. The assay is classed as biochemical. To be noted: read-out: Biological Assay 1 IC50 (nM) Akt1. Summed up:
as §1

T5 sequence (P31751 whole entry): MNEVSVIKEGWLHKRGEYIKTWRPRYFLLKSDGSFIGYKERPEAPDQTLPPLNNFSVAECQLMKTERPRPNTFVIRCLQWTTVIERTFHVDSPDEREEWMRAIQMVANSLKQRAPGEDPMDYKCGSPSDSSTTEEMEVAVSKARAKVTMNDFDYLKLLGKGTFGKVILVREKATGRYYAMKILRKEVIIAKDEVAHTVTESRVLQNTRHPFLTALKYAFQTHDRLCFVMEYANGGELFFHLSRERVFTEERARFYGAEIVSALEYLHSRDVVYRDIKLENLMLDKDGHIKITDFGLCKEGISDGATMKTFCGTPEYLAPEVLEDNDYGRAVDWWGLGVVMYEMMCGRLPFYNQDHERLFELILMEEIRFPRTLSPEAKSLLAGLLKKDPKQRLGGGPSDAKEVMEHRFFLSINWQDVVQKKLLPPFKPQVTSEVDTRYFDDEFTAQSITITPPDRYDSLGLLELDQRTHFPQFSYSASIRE
T2 sequence (P31751 whole entry): as above
T4 sequence (P31749 whole entry): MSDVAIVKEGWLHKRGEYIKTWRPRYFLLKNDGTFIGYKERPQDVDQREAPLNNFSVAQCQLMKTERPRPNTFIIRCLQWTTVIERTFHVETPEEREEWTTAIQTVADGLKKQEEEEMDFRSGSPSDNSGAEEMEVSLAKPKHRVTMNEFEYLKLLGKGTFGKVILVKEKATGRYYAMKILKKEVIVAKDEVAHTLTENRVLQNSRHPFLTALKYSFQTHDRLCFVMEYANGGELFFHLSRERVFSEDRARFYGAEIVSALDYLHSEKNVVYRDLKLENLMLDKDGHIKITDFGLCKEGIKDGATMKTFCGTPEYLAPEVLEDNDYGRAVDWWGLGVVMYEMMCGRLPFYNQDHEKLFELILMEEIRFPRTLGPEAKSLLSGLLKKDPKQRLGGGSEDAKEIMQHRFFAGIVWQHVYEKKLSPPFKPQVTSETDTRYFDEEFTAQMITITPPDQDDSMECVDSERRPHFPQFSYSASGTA
T6 sequence (P31749 whole entry): as above
T3 sequence (Q9Y243 whole entry): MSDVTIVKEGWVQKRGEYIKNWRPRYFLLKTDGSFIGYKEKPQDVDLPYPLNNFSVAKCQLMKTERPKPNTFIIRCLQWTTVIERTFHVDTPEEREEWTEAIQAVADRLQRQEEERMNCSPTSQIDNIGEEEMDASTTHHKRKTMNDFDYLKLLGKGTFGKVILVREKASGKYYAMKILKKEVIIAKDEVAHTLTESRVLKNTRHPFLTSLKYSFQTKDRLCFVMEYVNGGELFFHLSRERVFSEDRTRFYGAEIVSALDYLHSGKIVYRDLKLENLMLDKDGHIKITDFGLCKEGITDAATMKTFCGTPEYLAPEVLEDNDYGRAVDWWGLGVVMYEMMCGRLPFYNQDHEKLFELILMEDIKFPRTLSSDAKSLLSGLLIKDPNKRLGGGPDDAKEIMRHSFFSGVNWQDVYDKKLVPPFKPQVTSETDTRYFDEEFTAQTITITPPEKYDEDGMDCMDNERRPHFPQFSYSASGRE
T1 sequence (Q9Y243 whole entry): as above

As for `CCC(=O)N(C)[C@H]1CC[C@H](CC(=O)Nc2cnc(-c3ccc([C@]4(N)C[C@](C)(O)C4)cc3)c(-c3ccccc3)c2)CC1` [Example 98, N-(4-(2-((6-(4-(trans-1-amino-3-hydroxy-3-methylcyclobutyl)phenyl)-5-phenylpyridin-3-yl)amino)-2-oxoethyl)cyclohexyl)-N-methylpropionamide], the IC50 is 7 nM on p-Akt3 in WM115 cells; 470 nM at p-Akt2 in WM115 cells; 5 nM at Akt3; 880 nM at p-Akt1 in LNCaP cells; 53 nM at Akt2; 3500 nM at Akt1.
Turning to `CCC(=O)N(C)[C@H]1CC[C@H](CC(=O)Nc2cc(-c3ccccc3)c(-c3ccc(C(C)(C)N)cc3)nn2)CC1` [Example A84, N-(trans-4-(2-((6-(4-(2-aminopropan-2-yl)phenyl)-5-phenylpyridazin-3-yl)amino)-2-oxoethyl)cyclohexyl)-N-methylpropionamide], the IC50 is 150 nM on p-Akt3 in WM115 cells; 7100 nM on p-Akt2 in WM115 cells; 51 nM at Akt3; greater than 30000 nM on p-Akt1 in LNCaP cells; 4000 nM at Akt2; greater than 30000 nM at Akt1.
For `CC(=O)N(C(C)C)[C@H]1CC[C@H](CC(=O)Nc2cc(-c3ccccc3)c(-c3ccc([C@]4(N)C[C@](C)(O)C4)cc3)cn2)CC1` [Example 102, N-(5-(4-(trans-1-amino-3-hydroxy-3-methylcyclobutyl)phenyl)-4-phenylpyridin-2-yl)-2-(trans-4-(N-isopropylacetamido)cyclohexyl)acetamide], the IC50 at p-Akt3 in WM115 cells was 57 nM; at p-Akt2 in WM115 cells, 1700 nM; at Akt3, 16 nM; at p-Akt1 in LNCaP cells, 1800 nM; at Akt2, 140 nM; on Akt1 it was 4100 nM.
Consider `COC(=O)N(C)[C@H]1CC[C@H](CC(=O)Nc2cc(-c3ccsc3)c(-c3ccc([C@]4(N)C[C@](C)(O)C4)cc3)nn2)CC1` [Example 84, Methyl (trans-4-(2-((6-(4-(trans-1-amino-3-hydroxy-3-methylcyclobutyl)phenyl)-5-(thiophen-3-yl)pyridazin-3-yl)amino)-2-oxoethyl)cyclohexyl)(methyl)carbamate], for which the half-inhibitory concentration (IC50) on p-Akt3 in WM115 cells was 8 nM; at p-Akt2 in WM115 cells, 830 nM; at Akt3, 5 nM; on p-Akt1 in LNCaP cells, greater than 19000 nM; on Akt2, 140 nM; at Akt1, 2600 nM.
On to `CN(C(=O)C1CC1)[C@H]1CC[C@H](CC(=O)Nc2cnc(-c3ccc(C(C)(C)N)cc3)c(-c3ccccc3)c2)CC1` [Example A29, N-(trans-4-(2-((6-(4-(2-aminopropan-2-yl)phenyl)-5-phenylpyridin-3-yl)amino)-2-oxoethyl)cyclohexyl)-N-methylcyclopropanecarboxamide], for which the IC50 is 150 nM at p-Akt3 in WM115 cells; 5800 nM at p-Akt2 in WM115 cells; 490 nM on Akt3; greater than 28000 nM at p-Akt1 in LNCaP cells; 5700 nM on Akt2; greater than 30000 nM at Akt1.
Regarding `CC(C)(N)c1ccc(-c2ncc(NC(=O)C[C@H]3CC[C@H](NC(=O)C4CC4)CC3)cc2-c2ccsc2)cc1` [Example 26, N-(trans-4-(2-((6-(4-(2-aminopropan-2-yl)phenyl)-5-(thiophen-3-yl)pyridin-3-yl)amino)-2-oxoethyl)cyclohexyl)cyclopropanecarboxamide], the IC50 is 380 nM at p-Akt3 in WM115 cells; 9000 nM on p-Akt2 in WM115 cells; 1600 nM on Akt3; greater than 16000 nM at p-Akt1 in LNCaP cells; 12000 nM on Akt2; greater than 30000 nM at Akt1.
On to `COC(=O)N(C)[C@H]1CC[C@H](CC(=O)Nc2cc(-c3ccccc3)c(-c3ccc([C@]4(N)C[C@](C)(O)C4)cc3)nn2)CC1` [Example 59, Methyl (trans-4-(2-((6-(4-(trans-1-amino-3-hydroxy-3-methylcyclobutyl)phenyl)-5-phenylpyridazin-3-yl)amino)-2-oxoethyl)cyclohexyl)(methyl)carbamate], for which the concentration for half-maximal inhibition (IC50) was 24 nM at p-Akt3 in WM115 cells; 380 nM on p-Akt2 in WM115 cells; 4 nM at Akt3; 1600 nM at p-Akt1 in LNCaP cells; 50 nM at Akt2; 1400 nM on Akt1.
Take `COC(=O)N(C)[C@H]1CC[C@H](CC(=O)Nc2cc(-c3ccccc3F)c(-c3ccc(C4(N)CCC4)cc3)cn2)CC1` [Example A63, Methyl (trans-4-(2-((5-(4-(1-aminocyclobutyl)phenyl)-4-(2-fluorophenyl)pyridin-2-yl)amino)-2-oxoethyl)cyclohexyl)(methyl)carbamate]: the IC50 is 470 nM at p-Akt3 in WM115 cells; 6100 nM on p-Akt2 in WM115 cells; 120 nM on Akt3; greater than 30000 nM on p-Akt1 in LNCaP cells; 5700 nM at Akt2; greater than 30000 nM at Akt1.
As for `COC(=O)N(C(C)C)[C@H]1CC[C@H](CC(=O)Nc2cc(-c3ccccc3)c(-c3ccc([C@]4(N)C[C@](C)(O)C4)cc3)nn2)CC1` [Example 101, Methyl (trans-4-(2-((6-(4-(trans-1-amino-3-hydroxy-3-methylcyclobutyl)phenyl)-5-phenylpyridazin-3-yl)amino)-2-oxoethyl)cyclohexyl)(isopropyl)carbamate], the IC50 at p-Akt3 in WM115 cells was 48 nM; on p-Akt2 in WM115 cells, 2600 nM; at Akt3 it was 7 nM; on p-Akt1 in LNCaP cells, 5900 nM; on Akt2, 120 nM; on Akt1 it was 8900 nM.
`CC(=O)N(C)[C@H]1CC[C@H](CC(=O)Nc2cc(-c3ccccc3)c(-c3ccc([C@]4(N)C[C@H](F)C4)cc3)cn2)CC1` [Example A59, N-(5-(4-((1r,3r)-1-amino-3-fluorocyclobutyl)phenyl)-4-phenylpyridin-2-yl)-2-(trans-4-(N-methylacetamido)cyclohexyl)acetamide]: the IC50 at p-Akt3 in WM115 cells was 250 nM; on p-Akt2 in WM115 cells, 8000 nM; at Akt3, 28 nM; on p-Akt1 in LNCaP cells it was 9700 nM; on Akt2, 740 nM; at Akt1 it was greater than 30000 nM.
Take `CCC(=O)N(C)[C@H]1CC[C@H](CC(=O)Nc2cc(-c3ccccc3)c(-c3ccc(C4(N)CC4)cc3)nn2)CC1` [Example A91, N-(trans-4-(2-((6-(4-(1-aminocyclopropyl)phenyl)-5-phenylpyridazin-3-yl)amino)-2-oxoethyl)cyclohexyl)-N-methylpropionamide]: the IC50 on p-Akt3 in WM115 cells is 90 nM; on p-Akt2 in WM115 cells, 2000 nM; at Akt3, 24 nM; at p-Akt1 in LNCaP cells it was greater than 30000 nM; on Akt2, 490 nM; on Akt1, greater than 30000 nM.
Regarding `CC(=O)N(C)[C@H]1CC[C@H](CC(=O)Nc2cc(-c3ccccc3)c(-c3ccc(C4(N)CC4)c(F)c3)nn2)CC1` [Example A54, N-(6-(4-(1-aminocyclopropyl)-3-fluorophenyl)-5-phenylpyridazin-3-yl)-2-(trans-4-(N-methylacetamido)cyclohexyl)acetamide], the IC50 on p-Akt3 in WM115 cells was 520 nM; at p-Akt2 in WM115 cells, greater than 13000 nM; at Akt3, 160 nM; on p-Akt1 in LNCaP cells it was greater than 30000 nM; at Akt2 it was 6300 nM; on Akt1, greater than 30000 nM.
On to `NC1(c2ccc(-c3nnc(NC(=O)C[C@H]4CC[C@H](N5CCOC5=O)CC4)cc3-c3ccccc3)cc2F)CC1` [Example A50, N-(6-(4-(1-aminocyclopropyl)-3-fluorophenyl)-5-phenylpyridazin-3-yl)-2-(trans-4-(2-oxooxazolidin-3-yl)cyclohexyl)acetamide], for which the half-inhibitory concentration (IC50) at p-Akt3 in WM115 cells was 270 nM; on p-Akt2 in WM115 cells it was greater than 3790 nM; on Akt3, 140 nM; at p-Akt1 in LNCaP cells, greater than 30000 nM; at Akt2 it was 2200 nM; on Akt1, greater than 30000 nM.
